{"source": "paper PMC11801715", "about": "“Activating PKC-ε induces HIV expression with improved tolerability” (PLOS Pathogens, 2025)", "key": {"[1]": {"system": "cellular p24 in CD4+ T cells", "assay": "Ex vivo HIV-Flow assay in CD4+ T cells", "type": "cell-based, HIV-1", "conditions": "500 nM in HIV-Flow, 72 hours", "protocol": "Isolated CD4^+ T cells from ART-suppressed people with HIV were cultured in RPMI medium containing 10% FBS, 100 nM efavirenz, and 1 μM tenofovir alafenamide at 2 million cells per mL. These cells were subsequently stimulated with DMSO (vehicle control), 500 nM PKC agonist C-233, or 162 nM PMA and 1 µg/mL ionomycin. The cells were cultured at 37°C, 5% CO2 for 3 days. After 3 days, the cells were washed with PBS, stained with Live/Dead Fixable Aqua for 25 minutes at 4°C, followed by 2% FBS in PBS wash. Cells were then fixed and permeabilized in FoxP3 Fix/Perm buffer (E-Bioscience, catalog 005523) for 45 minutes at 4°C, followed by FoxP3 Perm buffer wash. The samples were stained with 2 different anti-p24 antibodies, (KC57-PE/ Beckman Coulter, 6604667, and a28B7-APC Medimabs, MM-0289-APC) diluted 1:1000 in FoxP3 Perm buffer for 45 minutes at 4°C, washed with FoxP3 Perm buffer, and resuspended in PBS. The samples were run on the BD LSR Fortessa II flow cytometer. The data were analyzed using FlowJo version 10.7.1.\nSupplementary file ppat.1012874.s012.png: S9 Fig C-233 induces HIV activation in CD4^+ T cells from ART-suppressed people with HIV. […]"}, "[2]": {"assay": "In vivo monkey study: tolerability, clinical pathology, histopathology", "parameters": "species or system rhesus macaque", "conditions": "male, rhesus monkey, in vivo; single IV infusion; read-out: maximum tolerated dose", "protocol": "(§1) Male rhesus macaque monkeys (young adult to adult) were sourced from the Covance stock colony for conduct of in vivo studies at Covance Laboratories Inc. (Madison, Wisconsin, USA). Monkeys were administered a single dose of vehicle control (n = 3), 0.03, 0.1, 0.3, or 1 mg/kg of C-232A (n = 1) by intravenous infusion over 30 minutes using a sentinel approach. An additional 2 male monkeys were administered 0.3 mg/kg C232A after it was determined that this was the maximum tolerated dose level. Blood samples were collected through 24 hours postdose. Samples for PK (for measurement of C-232A concentration) and cytokine analysis were processed to plasma and shipped to Gilead Sciences. Activation of CD4^+ T cells was assessed by measuring CD69 expression levels in whole blood by flow cytometry (Covance Laboratories). Samples for clinical pathology were analyzed at Covance Laboratories for hematology, coagulation, and clinical chemistry panels. At unscheduled necropsy (1 mg/kg C-232A), tissues were preserved in 10% neutral-buffered formalin, embedded in paraffin, and processed to slides for staining with hematoxylin and eosin. Tissues were then evaluated independently (Experimental Pathology Laboratories, Inc)."}, "rhesus macaques": {"system": "rhesus macaques", "assay": "In vivo monkey study: tolerability, clinical pathology, histopathology", "parameters": "species or system rhesus macaque", "protocol": "as §1"}, "[3]": {"system": "plasma cytokines/chemokines", "assay": "Cytokine/chemokine analysis in plasma", "type": "in vivo, rhesus macaque", "conditions": "4 hours post dose", "text": "For plasma cytokine analysis (S1 Table), whole blood was collected into K2EDTA tubes from C-232A and vehicle dosed rhesus macaques (prebleed and various post-dose time points) and plasma was isolated and stored at −80^ºC. Cytokine/chemokine analysis in plasma samples was accomplished using a nonhuman primate-specific 37 Plex ProcartaPlex immunoassay system (Thermo Fisher Scientific) according to the manufacturer’s instructions. Samples were then read on a Luminex 200 (Luminex) platform and analyzed using Bio-plex Manager software (Bio-Rad)."}}, "data": [{"molecule": "Cc1ccc(C#Cc2ccc(C(=O)OCC3(CO)Cc4c(-c5ccccc5)ccnc4O3)cc2)cc1", "note": "(stereo not drawn) [C-233]", "values": [{"measurement": "HIV protein production (supernatant p24 and cellular p24 by HIV-Flow)", "setting": "[1]", "result": "activated production of viral protein"}]}, {"molecule": "Cc1ccc(C#Cc2ccc3oc(CC(C)(C)C(=O)OCC4(CO)CC(=CCC(CC(C)C)CC(C)C)C(=O)O4)cc3c2)cc1", "note": "(stereo not drawn) [C-232A]", "values": [{"measurement": "MTD", "setting": "[2]", "result": 0.3, "unit": "mg/kg"}, {"measurement": "circulating fibrinogen", "setting": "rhesus macaques; 1 mg/kg", "result": "decreased"}, {"measurement": "coagulation times", "setting": "rhesus macaques; 1 mg/kg", "result": "prolonged"}, {"measurement": "histopathology", "setting": "rhesus macaques; 1 mg/kg", "result": "hemorrhage in the lung and adrenal gland"}, {"measurement": "outcome (severe clinical signs)", "setting": "rhesus macaques; 1 mg/kg, single IV infusion, 1 monkey", "result": "euthanized 8 hours postdose"}, {"measurement": "tolerability", "setting": "rhesus macaques; 0.03, 0.1, and 0.3 mg/kg, single IV infusion", "result": "well tolerated"}, {"measurement": "circulating platelet counts", "setting": "rhesus macaques; higher doses", "result": "< 100,000 platelets/µL"}, {"measurement": "mean platelet volume", "setting": "rhesus macaques; higher doses", "result": "> 15", "unit": "fL"}, {"measurement": "I-TAC in plasma", "setting": "[3]; 0.03 mg/kg", "result": 88, "unit": "pg/mL"}, {"measurement": "IFN-α in plasma", "setting": "[3]; 0.03 mg/kg", "result": 90, "unit": "pg/mL"}, {"measurement": "IFN-γ in plasma", "setting": "[3]; 0.03 mg/kg", "result": 43, "unit": "pg/mL"}, {"measurement": "IL-1RA in plasma", "setting": "[3]; 0.03 mg/kg", "result": 169, "unit": "pg/mL"}, {"measurement": "IL-1β in plasma", "setting": "[3]; 0.03 mg/kg", "result": 45, "unit": "pg/mL"}, {"measurement": "IL-6 in plasma", "setting": "[3]; 0.03 mg/kg", "result": 43, "unit": "pg/mL"}, {"measurement": "IL-8 in plasma", "setting": "[3]; 0.03 mg/kg", "result": 275, "unit": "pg/mL"}, {"measurement": "IL-10 in plasma", "setting": "[3]; 0.03 mg/kg", "result": 42, "unit": "pg/mL"}, {"measurement": "IL-18 in plasma", "setting": "[3]; 0.03 mg/kg", "result": 114, "unit": "pg/mL"}, {"measurement": "MCP-1 in plasma", "setting": "[3]; 0.03 mg/kg", "result": 1900, "unit": "pg/mL"}, {"measurement": "MIG in plasma", "setting": "[3]; 0.03 mg/kg", "result": 55, "unit": "pg/mL"}, {"measurement": "MIP-1α in plasma", "setting": "[3]; 0.03 mg/kg", "result": 208, "unit": "pg/mL"}, {"measurement": "MIP-1β in plasma", "setting": "[3]; 0.03 mg/kg", "result": 131, "unit": "pg/mL"}, {"measurement": "TNF-α in plasma", "setting": "[3]; 0.03 mg/kg", "result": 56, "unit": "pg/mL"}, {"measurement": "VEGF-A in plasma", "setting": "[3]; 0.03 mg/kg", "result": 107, "unit": "pg/mL"}, {"measurement": "I-TAC in plasma", "setting": "[3]; 0.1 mg/kg", "result": 427, "unit": "pg/mL"}, {"measurement": "IFN-α in plasma", "setting": "[3]; 0.1 mg/kg", "result": 143, "unit": "pg/mL"}, {"measurement": "IFN-γ in plasma", "setting": "[3]; 0.1 mg/kg", "result": 75, "unit": "pg/mL"}, {"measurement": "IL-1RA in plasma", "setting": "[3]; 0.1 mg/kg", "result": 775, "unit": "pg/mL"}, {"measurement": "IL-1β in plasma", "setting": "[3]; 0.1 mg/kg", "result": 70, "unit": "pg/mL"}, {"measurement": "IL-6 in plasma", "setting": "[3]; 0.1 mg/kg", "result": 126, "unit": "pg/mL"}, {"measurement": "IL-8 in plasma", "setting": "[3]; 0.1 mg/kg", "result": 2531, "unit": "pg/mL"}, {"measurement": "IL-10 in plasma", "setting": "[3]; 0.1 mg/kg", "result": 80, "unit": "pg/mL"}, {"measurement": "IL-18 in plasma", "setting": "[3]; 0.1 mg/kg", "result": 193, "unit": "pg/mL"}, {"measurement": "MCP-1 in plasma", "setting": "[3]; 0.1 mg/kg", "result": 3250, "unit": "pg/mL"}, {"measurement": "MIG in plasma", "setting": "[3]; 0.1 mg/kg", "result": 64, "unit": "pg/mL"}, {"measurement": "MIP-1α in plasma", "setting": "[3]; 0.1 mg/kg", "result": 160, "unit": "pg/mL"}, {"measurement": "MIP-1β in plasma", "setting": "[3]; 0.1 mg/kg", "result": 428, "unit": "pg/mL"}, {"measurement": "TNF-α in plasma", "setting": "[3]; 0.1 mg/kg", "result": 39, "unit": "pg/mL"}, {"measurement": "VEGF-A in plasma", "setting": "[3]; 0.1 mg/kg", "result": 161, "unit": "pg/mL"}, {"measurement": "I-TAC in plasma", "setting": "[3]; 0.3 mg/kg", "result": 365, "unit": "pg/mL"}, {"measurement": "IFN-α in plasma", "setting": "[3]; 0.3 mg/kg", "result": 112, "unit": "pg/mL"}, {"measurement": "IFN-γ in plasma", "setting": "[3]; 0.3 mg/kg", "result": 53, "unit": "pg/mL"}, {"measurement": "IL-1RA in plasma", "setting": "[3]; 0.3 mg/kg", "result": 2265, "unit": "pg/mL"}, {"measurement": "IL-1β in plasma", "setting": "[3]; 0.3 mg/kg", "result": 59, "unit": "pg/mL"}, {"measurement": "IL-6 in plasma", "setting": "[3]; 0.3 mg/kg", "result": 76, "unit": "pg/mL"}, {"measurement": "IL-8 in plasma", "setting": "[3]; 0.3 mg/kg", "result": 375, "unit": "pg/mL"}, {"measurement": "IL-10 in plasma", "setting": "[3]; 0.3 mg/kg", "result": 54, "unit": "pg/mL"}, {"measurement": "IL-18 in plasma", "setting": "[3]; 0.3 mg/kg", "result": 145, "unit": "pg/mL"}, {"measurement": "MCP-1 in plasma", "setting": "[3]; 0.3 mg/kg", "result": 6117, "unit": "pg/mL"}, {"measurement": "MIG in plasma", "setting": "[3]; 0.3 mg/kg", "result": 55, "unit": "pg/mL"}, {"measurement": "MIP-1α in plasma", "setting": "[3]; 0.3 mg/kg", "result": 187, "unit": "pg/mL"}, {"measurement": "MIP-1β in plasma", "setting": "[3]; 0.3 mg/kg", "result": 707, "unit": "pg/mL"}, {"measurement": "TNF-α in plasma", "setting": "[3]; 0.3 mg/kg", "result": 19, "unit": "pg/mL"}, {"measurement": "VEGF-A in plasma", "setting": "[3]; 0.3 mg/kg", "result": 81, "unit": "pg/mL"}, {"measurement": "I-TAC in plasma", "setting": "[3]; 1 mg/kg", "result": 5602, "unit": "pg/mL"}, {"measurement": "IFN-α in plasma", "setting": "[3]; 1 mg/kg", "result": 187, "unit": "pg/mL"}, {"measurement": "IFN-γ in plasma", "setting": "[3]; 1 mg/kg", "result": 200, "unit": "pg/mL"}, {"measurement": "IL-1RA in plasma", "setting": "[3]; 1 mg/kg", "result": 4471, "unit": "pg/mL"}, {"measurement": "IL-1β in plasma", "setting": "[3]; 1 mg/kg", "result": 343, "unit": "pg/mL"}, {"measurement": "IL-6 in plasma", "setting": "[3]; 1 mg/kg", "result": 3872, "unit": "pg/mL"}, {"measurement": "IL-8 in plasma", "setting": "[3]; 1 mg/kg", "result": 6153, "unit": "pg/mL"}, {"measurement": "IL-10 in plasma", "setting": "[3]; 1 mg/kg", "result": 82, "unit": "pg/mL"}, {"measurement": "IL-18 in plasma", "setting": "[3]; 1 mg/kg", "result": 351, "unit": "pg/mL"}, {"measurement": "MCP-1 in plasma", "setting": "[3]; 1 mg/kg", "result": "13,620 pg/mL"}, {"measurement": "MIG in plasma", "setting": "[3]; 1 mg/kg", "result": 658, "unit": "pg/mL"}, {"measurement": "MIP-1α in plasma", "setting": "[3]; 1 mg/kg", "result": 1111, "unit": "pg/mL"}, {"measurement": "MIP-1β in plasma", "setting": "[3]; 1 mg/kg", "result": 3913, "unit": "pg/mL"}, {"measurement": "TNF-α in plasma", "setting": "[3]; 1 mg/kg", "result": 28, "unit": "pg/mL"}, {"measurement": "VEGF-A in plasma", "setting": "[3]; 1 mg/kg", "result": 330, "unit": "pg/mL"}]}]}
